Assay results published in patent publication US11779606B2, “Peptides and combination of peptides of non-canonical origin for use in immunotherapy against different types of cancers” (Immatics Biotechnologies GmbH, priority 2018, dated 2023).

Columns and labels:
HLA-A*02:01 = HLA-A*02:01 (Homo sapiens, UniProt P04439, D140Y/D185E/D98H/E176V/E277Q/G131W/G231S/I119V/I121R/I166T/I218V/L300P/L318F/N151K/N90K/P208A/P217A/Q86G/Q94H/R138H/R169H/T345S); assay: MHC binding assay (UV-ligand exchange, β2m ELISA); conditions: MHC class I binding score; peptide exchange yield, binding to HLA-A*02:01, UV-ligand exchange with β2m ELISA
Description: Candidate peptides for T cell based therapies according to the present invention were further tested for their MHC binding capacity (affinity).
The individual peptide-MHC complexes were produced by UV-ligand exchange, where a UV-sensitive peptide is cleaved upon UV-irradiation and exchanged with the peptide of interest as analyzed. Only peptide candidates that can effectively bind and stabilize the peptide-receptive MHC molecules prevent dissociation of the MHC complexes. To determine the yield of the exchange reaction, an ELISA was performed based on the detection of the light chain (β2m) of stabilized MHC complexes. The assay was performed as generally described in Rodenko et al. (Rodenko et al., 2006).
96 well MAXISorp plates (NUNC) were coated over night with 2 ug/ml streptavidin in PBS at room temperature, washed 4× and blocked for 1h at 37° C. in 2% BSA containing blocking buffer. Refolded HLA-A*02:01/MLA-001 monomers served as standards, covering the range of 15-500 ng/ml. Peptide-MHC monomers of the UV-exchange reaction were diluted 100 fold in blocking buffer. Samples were incubated for 1 h at 37° C., washed four times, incubated with 2 ug/ml HRP conjugated anti-β2m for 1h at 37° C., washed again and detected with TMB solution that is stopped with […]. Absorption was measured at 450 nm. Candidate peptides that show a high exchange yield (preferably higher than 50%, most preferred higher than 75%) are generally preferred for a generation and production of antibodies or fragments thereof, and/or T cell receptors or fragments thereof, as they show sufficient avidity to the MHC molecules and prevent dissociation of the MHC complexes.

CD8+ T cells = assay: In vitro T-cell priming assay (immunogenicity) with artificial APCs loaded with peptide/MHC complexes and anti-CD28; type: cell-based, human; conditions: CD8+ T cells of healthy HLA-A*02 donors, multimer staining
Description: In order to obtain information regarding the immunogenicity of the TUMAPs of the present invention, the inventors performed investigations using an in vitro T-cell priming assay based on repeated stimulations of CD8+ T cells with artificial antigen presenting cells (aAPCs) loaded with peptide/MHC complexes and anti-CD28 antibody.
In order to perform in vitro stimulations by artificial antigen presenting cells loaded with peptide-MHC complex (pMHC) and anti-CD28 antibody, the inventors first isolated CD8+ T cells from fresh HLA-A*02 leukapheresis products via positive selection using CD8 microbeads (Miltenyi Biotec, Bergisch-Gladbach, Germany) of healthy donors obtained from the University clinics Mannheim, Germany, after informed consent.
PBMCs and isolated CD8+ lymphocytes were incubated in T-cell medium (TCM) until use consisting of RPMI-Glutamax (Invitrogen, Karlsruhe, Germany) supplemented with 10% heat inactivated human AB serum (PAN-Biotech, Aidenbach, Germany), 100 U/ml Penicillin/100 μg/ml Streptomycin (Cambrex, Cologne, Germany), 1 mM sodium pyruvate (CC Pro, Oberdorla, Germany), 20 μg/ml Gentamycin (Cambrex). 2.5 ng/ml IL-7 (PromoCell, Heidelberg, Germany) and 10 U/ml IL-2 (Novartis Pharma, Nümberg, Germany) were also added to the TCM at this step.
Generation of pMHC/anti-CD28 coated beads, T-cell stimulations and readout was performed in a highly defined in vitro system using four different pMHC molecules per stimulation condition and 8 different pMHC molecules per readout condition.
The purified co-stimulatory mouse IgG2a anti human CD28 Ab 9.3 (Jung et al., 1987) was chemically biotinylated using Sulfo-N-hydroxysuccinimidobiotin as recommended by the manufacturer (Perbio, Bonn, Germany). Beads used were 5.6 μm diameter streptavidin coated polystyrene particles (Bangs Laboratories, Illinois, USA).
800.000 beads/200 μl were coated in 96-well plates in the presence of 4×12.5 ng different biotin-pMHC, washed and 600 ng biotin anti-CD28 were added subsequently in a volume of 200 μl. Stimulations were initiated in 96-well plates by co-incubating […] CD8+ T cells with 2×10^5 washed coated beads in 200 μl TCM supplemented with 5 ng/ml IL-12 (PromoCell) for 3 days at 37° C. Half of the medium was then exchanged by fresh TCM supplemented with 80 U/ml IL-2 and incubating was continued for 4 days at 37° C. This stimulation cycle was performed for a total of three times. For the pMHC multimer readout using 8 different pMHC molecules per condition, a two-dimensional combinatorial coding approach was used as previously described (Andersen et al., 2012) with minor modifications encompassing coupling to 5 different fluorochromes. Finally, multimeric analyses were performed by staining the cells with Live/dead near IR dye (Invitrogen, Karlsruhe, Germany), CD8-FITC antibody clone SK1 (BD, Heidelberg, Germany) and fluorescent pMHC multimers. For analysis, a BD LSRII SORP cytometer equipped with appropriate lasers and filters was used. Peptide specific cells were calculated as percentage of total CD8+ cells. Evaluation of multimeric analysis was done using the FlowJo software (Tree Star, Oreg., USA). In vitro priming of specific multimer+CD8+ lymphocytes was detected by comparing to negative control stimulations.

| Substance | Peptide exchange (HLA-A*02:01) | Wells positive [%] (CD8+ T cells; Table 13b) | Wells positive [%] (CD8+ T cells; Table 13a) |
| --- | --- | --- | --- |
| 31 (VVLPIVITL; listed as Homo sapiens) [compound 31] | ++++ (≥75% = ++++) | ++ (20-49% = ++) | – |
| 7 (ALWEEVKATSL; listed as Homo sapiens) [compound 7] | ++++ (≥75% = ++++) | + (<20% = +) | – |
| 65 (IAISQLTFV; listed as Homo sapiens) [compound 65] | ++++ (≥75% = ++++) | + (<20% = +) | – |
| 50 (GLASYLDRV; listed as Homo sapiens) [compound 50] | ++++ (≥75% = ++++) | + (<20% = +) | – |
| 46 (AMVEIIPKV; listed as Homo sapiens) [compound 46] | ++++ (≥75% = ++++) | + (<20% = +) | – |
| 96 (KIIEDLANTV; listed as Homo sapiens) [compound 96] | ++++ (≥75% = ++++) | ++ (20-49% = ++) | – |
| 4 (YLGDSHVLL; listed as Homo sapiens) [compound 4] | ++++ (≥75% = ++++) | + (<20% = +) | – |
| 51 (GLLTQVHIL; listed as Homo sapiens) [compound 51] | ++++ (≥75% = ++++) | + (<20% = +) | – |
| 101 (KLPEGHLPEV; listed as Homo sapiens) [compound 101] | ++++ (≥75% = ++++) | + (<20% = +) | – |
| 19 (MLLPWLPKL; listed as Homo sapiens) [compound 19] | ++++ (≥75% = ++++) | +++ (50-69% = +++) | – |
| 102 (GLDPTQFRV; listed as Homo sapiens) [compound 102] | – | – | ++++ (>=70% = ++++) |
| 48 (MLAEIHPKA; listed as Homo sapiens) [compound 48] | ++++ (≥75% = ++++) | +++ (50-69% = +++) | – |
| 3 (FLLVPSPIWQL; listed as Homo sapiens) [compound 3] | ++++ (≥75% = ++++) | + (<20% = +) | – |
| 33 (FASERPPSV; listed as Homo sapiens) [compound 33] | ++++ (≥75% = ++++) | +++ (50-69% = +++) | – |
| 74 (TLLSYSIPL; listed as Homo sapiens) [compound 74] | ++++ (≥75% = ++++) | + (<20% = +) | – |
| 103 (SLVSYLDKV; listed as Homo sapiens) [compound 103] | – | – | + (<20% = +) |
| 40 (FTLPFLVNL; listed as Homo sapiens) [compound 40] | ++++ (≥75% = ++++) | +++ (50-69% = +++) | – |
| 29 (LLWEFPSMA; listed as Homo sapiens) [compound 29] | ++++ (≥75% = ++++) | ++ (20-49% = ++) | – |
| 6 (ALHDSPVYL; listed as Homo sapiens) [compound 6] | ++++ (≥75% = ++++) | ++ (20-49% = ++) | – |
| 47 (ALLPGVPGL; listed as Homo sapiens) [compound 47] | ++++ (≥75% = ++++) | ++ (20-49% = ++) | – |
| 13 (FLDEGSLLRL; listed as Homo sapiens) [compound 13] | ++++ (≥75% = ++++) | + (<20% = +) | – |
| 1 (KLLDFSTRI; listed as Homo sapiens) [compound 1] | ++++ (≥75% = ++++) | + (<20% = +) | – |
| 36 (FQVTRTTGV; listed as Homo sapiens) [compound 36] | ++++ (≥75% = ++++) | + (<20% = +) | – |
| 18 (KMMTFFQGL; listed as Homo sapiens) [compound 18] | ++++ (≥75% = ++++) | ++++ (≥70% = ++++) | – |
| 38 (SLSAWLPSL; listed as Homo sapiens) [compound 38] | ++++ (≥75% = ++++) | + (<20% = +) | – |
| 37 (KILDEFYNV; listed as Homo sapiens) [compound 37] | ++++ (≥75% = ++++) | +++ (50-69% = +++) | – |
| 2 (ALLDVLVKL; listed as Homo sapiens) [compound 2] | ++++ (≥75% = ++++) | + (<20% = +) | – |
| 26 (KLWTSLVNL; listed as Homo sapiens) [compound 26] | ++++ (≥75% = ++++) | +++ (50-69% = +++) | – |
| 68 (KLLADAFKV; listed as Homo sapiens) [compound 68] | ++++ (≥75% = ++++) | ++++ (≥70% = ++++) | – |
| 49 (FLWDPRDVVL; listed as Homo sapiens) [compound 49] | ++++ (≥75% = ++++) | + (<20% = +) | – |
